{"source": "patent US9131696B2", "about": "“Herbicidal compositions comprising fluroxypyr and flumetsulam” (Dow AgroSciences LLC, priority 2012, dated 2015)", "assay_in_all_cases": "Post-emergence field trial, visual weed control", "assay_type_in_all_cases": "in vivo", "key": {"[1]": {"tested_on": "AMARE = pigweed, redroot (Amaranthus retroflexus L.)", "conditions": "foliar", "description": "(§1) Multiple post-emergence field trials were conducted under field conditions in the United States (Mississippi, South Dakota, and Minnesota) and Mexico. Trial sites were located in commercially grown fields of corn (ZEAMX), spring wheat (TRZAS), and winter wheat (TRZAW), using standard herbicide small plot research methodology. Post-emergence trial plot size varied from 2 to 3 meter (m)×4 to 5 m (width×length) with 4 replicates per treatment. The crops were grown using normal cultural practices for fertilization, seeding, watering, and maintenance to ensure good growth of the crops and the weeds.\n(§2) All treatments in the post-emergence field trials were applied using a backpack compressed carbon dioxide (CO2) or nitrogen (N2) sprayer with flat fan nozzles calibrated to apply 94 to 250 liters per hectare (L/ha) spray volume at approximately 30-40 pounds per square inch (psi) nozzle pressure. Commercially available products of fluoroxypyr-meptyl (STARANE® 200, 200 grams acid equivalent per liter (g ae/L) and fluoroxypyr-meptyl EC 240 g ae/L) and flumetsulam (75WDG) were mixed in water at appropriate formulated product rates to achieve the desired rates based on a unit area of application (hectare) to achieve the desired rates as shown. […] Treatments were rated at 7 to 45 days after application (DAA) as compared to the untreated control plants. Visual weed control was scored on a scale of 0 to 100 percent where “0” corresponds to no injury and “100” corresponds to complete kill.\n(§3) The trial sites had naturally occurring populations of weeds. The weed spectrum included, but was not limited to, AMARE, AMASS, CHEAL, CHEMU, IPOLA, KCHSC, POLCO, RUMCR, and SASKR.\n(§4) A t-test (alpha=0.05) between Colby predictions and observed combinations was used to test for significant differences indicating synergy or antagonism using replicate data.\n(§5) The following equation was used to calculate the expected activity of mixtures containing two active ingredients, A and B: Expected=A+B−(A×B/100) • A=observed efficacy of active ingredient A at the same concentration as used in the mixture; • B=observed efficacy of active ingredient B at the same concentration as used in the mixture."}, "[2]": {"tested_on": "SASKR = thistle, Russian (Salsola iberica Sennen & Pau)", "conditions": "29 days after application, foliar", "description": "as §1, §2, §3, §4, §5"}, "[3]": {"tested_on": "IPOLA = morningglory, pitted (Ipomoea lacunosa L.)", "conditions": "28 days after application, foliar", "description": "as §1, §2, §3, §4, §5"}, "[4]": {"tested_on": "CHEMU = goosefoot, nettleleaf (Chenopodium murale L.)", "conditions": "30 days after application, foliar", "description": "as §1, §2, §3, §4, §5"}, "[5]": {"tested_on": "KCHSC = kochia (Kochia scoparia (L.) Schrad.)", "conditions": "28 days after application, foliar", "description": "as §1, §2, §3, §4, §5"}, "[6]": {"tested_on": "CHEAL = lambsquarters, common (Chenopodium album L.)", "conditions": "30 days after application, foliar", "description": "as §1, §2, §3, §4, §5"}, "[7]": {"tested_on": "POLCO = buckwheat, wild (Polygonum convolvulus L.)", "conditions": "28 days after application, foliar", "description": "as §1, §2, §3, §4, §5"}, "[8]": {"tested_on": "AMASS = pigweed species (Amaranthus sp.)", "conditions": "foliar; for Flumetsulam % Visual Weed Control: flumetsulam 20 g ai/ha", "description": "as §1, §2, §3, §4, §5"}, "[9]": {"tested_on": "RUMCR = dock, curly (Rumex crispus L.)", "conditions": "45 days after application, foliar", "description": "as §1, §2, §3, §4, §5"}}, "data": [{"smiles": "CCCCCCC(C)OC(=O)COc1nc(F)c(Cl)c(N)c1Cl", "note": "(racemic) [Fluroxypyr-Meptyl, (RS)-1-methylheptyl 4-amino-3,5-dichloro-6-fluoro-2-pyridyloxyacetate]", "values": [{"measurement": "Fluroxypyr-Meptyl % Visual Weed Control", "setting": "[1]; 13 days after application, fluroxypyr-meptyl 110 g ae/ha", "value": 8, "unit": "%"}, {"measurement": "Fluroxypyr-Meptyl % Visual Weed Control", "setting": "[1]; 28 days after application, fluroxypyr-meptyl 35 g ae/ha", "value": 3, "unit": "%"}, {"measurement": "Fluroxypyr-Meptyl % Visual Weed Control", "setting": "[1]; 28 days after application, fluroxypyr-meptyl 110 g ae/ha", "value": 13, "unit": "%"}, {"measurement": "Fluroxypyr-Meptyl % Visual Weed Control", "setting": "[2]; fluroxypyr-meptyl 35 g ae/ha", "value": 23, "unit": "%"}, {"measurement": "Fluroxypyr-Meptyl % Visual Weed Control", "setting": "[3]; fluroxypyr-meptyl 70 g ae/ha", "value": 20, "unit": "%"}, {"measurement": "Fluroxypyr-Meptyl % Visual Weed Control", "setting": "[4]; fluroxypyr-meptyl 50 g ae/ha", "value": 20, "unit": "%"}, {"measurement": "Fluroxypyr-Meptyl % Visual Weed Control", "setting": "[4]; fluroxypyr-meptyl 75 g ae/ha", "value": 28, "unit": "%"}, {"measurement": "Fluroxypyr-Meptyl % Visual Weed Control", "setting": "[5]; fluroxypyr-meptyl 35 g ae/ha", "value": 30, "unit": "%"}, {"measurement": "Fluroxypyr-Meptyl % Visual Weed Control", "setting": "[6]; fluroxypyr-meptyl 75 g ae/ha", "value": 20, "unit": "%"}, {"measurement": "Fluroxypyr-Meptyl % Visual Weed Control", "setting": "[7]; fluroxypyr-meptyl 35 g ae/ha", "value": 38, "unit": "%"}, {"measurement": "Fluroxypyr-Meptyl % Visual Weed Control", "setting": "[7]; fluroxypyr-meptyl 70 g ae/ha", "value": 64, "unit": "%"}, {"measurement": "Fluroxypyr-Meptyl % Visual Weed Control", "setting": "[8]; 7 days after application, fluroxypyr-meptyl 75 g ae/ha", "value": 15, "unit": "%"}, {"measurement": "Fluroxypyr-Meptyl % Visual Weed Control", "setting": "[8]; 14 days after application, fluroxypyr-meptyl 50 g ae/ha", "value": 21, "unit": "%"}, {"measurement": "Fluroxypyr-Meptyl % Visual Weed Control", "setting": "[8]; 14 days after application, fluroxypyr-meptyl 75 g ae/ha", "value": 18, "unit": "%"}, {"measurement": "Fluroxypyr-Meptyl % Visual Weed Control", "setting": "[9]; fluroxypyr-meptyl 75 g ae/ha", "value": 50, "unit": "%"}]}, {"smiles": "Cc1ccn2nc(S(=O)(=O)Nc3c(F)cccc3F)nc2n1", "note": "[Flumetsulam, 2′,6′-difluoro-5-methyl[1,2,4]triazolo-[1,5-a]pyrimidine-2-sulfonanilide]", "values": [{"measurement": "Flumetsulam % Visual Weed Control", "setting": "[1]; 13 days after application, flumetsulam 18 g ai/ha", "value": 81, "unit": "%"}, {"measurement": "Flumetsulam % Visual Weed Control", "setting": "[1]; 28 days after application, flumetsulam 35 g ai/ha", "value": 45, "unit": "%"}, {"measurement": "Flumetsulam % Visual Weed Control", "setting": "[2]; flumetsulam 9 g ai/ha", "value": 67, "unit": "%"}, {"measurement": "Flumetsulam % Visual Weed Control", "setting": "[3]; flumetsulam 18 g ai/ha", "value": 33, "unit": "%"}, {"measurement": "Flumetsulam % Visual Weed Control", "setting": "[4]; flumetsulam 15 g ai/ha", "value": 57, "unit": "%"}, {"measurement": "Flumetsulam % Visual Weed Control", "setting": "[4]; flumetsulam 30 g ai/ha", "value": 66, "unit": "%"}, {"measurement": "Flumetsulam % Visual Weed Control", "setting": "[4]; flumetsulam 60 g ai/ha", "value": 69, "unit": "%"}, {"measurement": "Flumetsulam % Visual Weed Control", "setting": "[5]; flumetsulam 35 g ai/ha", "value": 58, "unit": "%"}, {"measurement": "Flumetsulam % Visual Weed Control", "setting": "[6]; flumetsulam 15 g ai/ha", "value": 31, "unit": "%"}, {"measurement": "Flumetsulam % Visual Weed Control", "setting": "[6]; flumetsulam 30 g ai/ha", "value": 35, "unit": "%"}, {"measurement": "Flumetsulam % Visual Weed Control", "setting": "[6]; flumetsulam 60 g ai/ha", "value": 40, "unit": "%"}, {"measurement": "Flumetsulam % Visual Weed Control", "setting": "[7]; flumetsulam 18 g ai/ha", "value": 0, "unit": "%"}, {"measurement": "Flumetsulam % Visual Weed Control", "setting": "[7]; flumetsulam 35 g ai/ha", "value": 0, "unit": "%"}, {"measurement": "Flumetsulam % Visual Weed Control", "setting": "[8]; 7 days after application", "value": 79, "unit": "%"}, {"measurement": "Flumetsulam % Visual Weed Control", "setting": "[8]; 14 days after application", "value": 81, "unit": "%"}, {"measurement": "Flumetsulam % Visual Weed Control", "setting": "[9]; flumetsulam 15 g ai/ha", "value": 40, "unit": "%"}, {"measurement": "Flumetsulam % Visual Weed Control", "setting": "[9]; flumetsulam 30 g ai/ha", "value": 52, "unit": "%"}, {"measurement": "Flumetsulam % Visual Weed Control", "setting": "[9]; flumetsulam 60 g ai/ha", "value": 70, "unit": "%"}]}]}
